In ChEMBL document CHEMBL1201862, “PubChem BioAssay data set” (2004):
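Growth conditions: 96-well plates. Treatment: test compound, 48 hours, 5 concentrations. Analysis: linear interpolation between bracketing concentrations; unreached endpoints set to highest concentration. Here, GI50 denotes the concentration required for 50% inhibition of growth.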 Activity calls are given as the source filed them. Rule as the data show it: active = GI50 up to about 1.1 µM and inactive = higher.

Key:
Assay in all cases: NCI tumour cell line growth inhibition, 48 h
[1] = system: NCI-H460
[2] = system: NCI-H522
[3] = system: COLO 205
[4] = system: MDA-MB-231
[5] = system: M14
[6] = system: SK-MEL-5
[7] = system: UACC-62
[8] = system: SK-MEL-2
[9] = system: CAKI-1
[10] = system: MOLT-4
[11] = system: SK-MEL-28
[12] = system: MDA-N
[13] = system: SNB-75
[14] = system: 786-0
[15] = system: PC-3
[16] = system: HT-29
[17] = system: BT-549
[18] = system: HCT-15
[19] = system: SW-620
[20] = system: OVCAR-8

Row | Compound | GI50 [1] | GI50 [2] | GI50 [3] | GI50 [4] | GI50 [5] | GI50 [6] | GI50 [7] | GI50 [8] | GI50 [9] | GI50 [10] | GI50 [11] | GI50 [12] | GI50 [13] | GI50 [14] | GI50 [15] | GI50 [16] | GI50 [17] | GI50 [18] [µM] | GI50 [19] | GI50 [20]
1 | CCNc1nc2ccccc2nc1NCC | > 100 µM (inactive) | > 100 µM (inactive) | > 100 µM (inactive) | > 100 µM (inactive) | > 100 µM (inactive) | > 100 µM (inactive) | > 100 µM (inactive) | > 100 µM (inactive) | > 100 µM (inactive) | > 100 µM (inactive) | > 100 µM (inactive) | > 100 µM (inactive) | > 100 µM (inactive) | > 100 µM (inactive) | > 100 µM (inactive) | > 100 µM (inactive) | > 100 µM (inactive) | > 100 | > 100 µM (inactive) | > 100 µM (inactive)
2 | O=C1Nc2ccccc2/C1=C1/Nc2ccccc2/C1=N\OCCNCC(O)C(O)C(O)C(O)CO (stereo not given) | 18.1 µM (inactive) | 13.4 µM (inactive) | 12.1 µM (inactive) | 11.2 µM (inactive) | 20.9 µM (inactive) | 8.36 µM (inactive) | 8.93 µM (inactive) | 7.91 µM (inactive) | 38.5 µM (inactive) | 12.9 µM (inactive) | 9.73 µM (inactive) | 9.89 µM (inactive) | 11 µM (inactive) | 18.1 µM (inactive) | 10.2 µM (inactive) | 16.9 µM (inactive) | 13.9 µM (inactive) | > 50 | 15.9 µM (inactive) | 18.5 µM (inactive)
3 | Cc1ccc(S(=O)(=O)N(CC(O)COc2ccccc2)c2ccccc2Cl)cc1 (stereo not given) | 17 µM (inactive) | 12.4 µM (inactive) | 16.8 µM (inactive) | 14.6 µM (inactive) | 16.5 µM (inactive) | 14.7 µM (inactive) | 8.61 µM (inactive) | 13.7 µM (inactive) | 15.5 µM (inactive) | 19.8 µM (inactive) | 15.6 µM (inactive) | 16.3 µM (inactive) | 22.3 µM (inactive) | 18.4 µM (inactive) | 15.9 µM (inactive) | 17.5 µM (inactive) | 17.1 µM (inactive) | 15.8 | 17.8 µM (inactive) | 16.3 µM (inactive)
4 | O=C1C=CC(=O)c2c(O)c(N(CCCl)CCCl)c(Cl)c(O)c21 | 5.02 µM (inactive) | 3.74 µM (inactive) | 3.94 µM (inactive) | 4.56 µM (inactive) | 4.37 µM (inactive) | 4.59 µM (inactive) | > 6.07 µM (inactive) | 4.78 µM (inactive) | 4.66 µM (inactive) | > 5.31 µM (inactive) | > 5.6 µM (inactive) | 4.28 µM (inactive) | 7.8 µM (inactive) | 4.54 µM (inactive) | 5.47 µM (inactive) | 5.38 µM (inactive) | 4.15 µM (inactive) | 5.45 | 3.75 µM (inactive) | 4.51 µM (inactive)
5 | COC(=O)C1Cc2ccc(C)cc2C1=O (stereo not given) | > 100 µM (inactive) | > 100 µM (inactive) | > 100 µM (inactive) | > 100 µM (inactive) | > 100 µM (inactive) | 50.7 µM (inactive) | > 100 µM (inactive) | > 100 µM (inactive) | > 100 µM (inactive) | > 100 µM (inactive) | > 100 µM (inactive) | > 100 µM (inactive) | > 100 µM (inactive) | > 100 µM (inactive) | > 100 µM (inactive) | > 100 µM (inactive) | > 100 µM (inactive) | > 100 | > 100 µM (inactive) | > 100 µM (inactive)
6 | CC1(C)[C@@H]2C[C@H]1c1cnc(-c3ccccn3)cc1C2[C@@H]1c2cc(-c3ccccn3)ncc2[C@@H]2C[C@H]1C2(C)C (stereo not given in full) | 2.77 µM (inactive) | 25.3 µM (inactive) | 49.1 µM (inactive) | > 100 µM (inactive) | 38 µM (inactive) | 49.7 µM (inactive) | 45 µM (inactive) | 68.9 µM (inactive) | 70.5 µM (inactive) | 44 µM (inactive) | 88.3 µM (inactive) | > 100 µM (inactive) | 55.8 µM (inactive) | 86.1 µM (inactive) | 73.6 µM (inactive) | 45.3 µM (inactive) | > 100 µM (inactive) | 24.5 | 84.3 µM (inactive) | 46.8 µM (inactive)
7 | CC(C)OC(=O)c1cc(NC(=S)OC(C)C)ccc1Cl | > 39 µM (inactive) | 13.2 µM (inactive) | 14.6 µM (inactive) | 15.3 µM (inactive) | 35.6 µM (inactive) | 17.3 µM (inactive) | 16.1 µM (inactive) | 22.4 µM (inactive) | 15.1 µM (inactive) | 11.9 µM (inactive) | 28.3 µM (inactive) | 23.1 µM (inactive) | 19.6 µM (inactive) | 23.4 µM (inactive) | 23.7 µM (inactive) | 16.5 µM (inactive) | 18.2 µM (inactive) | 21.6 | 28.4 µM (inactive) | 26.4 µM (inactive)
